Data on 4 molecules can be found in ChEMBL document CHEMBL1144580, “Screening of alpha-helical peptide ligands controlling a calcineurin-phosphatase activity” (Bioorg Med Chem Lett, 2007).

Active and inactive are the calls of the source. The rule behind the calls is not given here.

The species named for experiment [1] is Homo sapiens. Nature of the experiment: Inhibition of calcineurin phosphatase activity in absence of calmodulin at 1 uM.
Experiment [2] is filed under the species Homo sapiens. Nature of the experiment: Inhibition of calcineurin phosphatase activity in presence of calmodulin at 1 uM.

In the case of `CC(C)C[C@H](NC(=O)[C@H](CCCCN)NC(=O)[C@H](CC(C)C)NC(=O)[C@H](CC(C)C)NC(=O)[C@H](CCCCN)NC(=O)[C@H](Cc1ccc(O)cc1)NC(=O)[C@H](Cc1ccccc1)NC(=O)[C@H](CC(C)C)NC(=O)[C@H](CCCNC(=N)N)NC(=O)[C@H](C)NC(=O)[C@H](CC(C)C)NC(=O)[C@H](CCCCN)NC(=O)[C@H](CCCCN)NC(=O)[C@@H](N)CC(C)C)C(=O)O`, the outcome in the experiment listed under Homo sapiens [1] was inactive. Moreover, the result in the experiment listed under Homo sapiens [2] was Active.

H-LKKLIRLAYKLLKL-OH: the outcome in the experiment listed under Homo sapiens [1] was inactive. Besides, in the experiment filed under Homo sapiens [2], the Activity result was “Dose-dependent effect”.

H-LKKLIRLFTKLLKL-OH: the outcome in the experiment listed under Homo sapiens [1] was inactive. Also, the Activity result in the experiment listed under Homo sapiens [2] is “Dose-dependent effect”.

In the case of H-LKKLLKLLKKLLKL-OH, the result in the experiment listed under Homo sapiens [1] was inactive. Moreover, in the experiment listed under Homo sapiens [2], the Activity entry is “Dose-dependent effect”.
